Test results: PMC8791944, “GLUT3 inhibitor discovery through in silico ligand screening and in vivo validation in eukaryotic expression systems” (Scientific Reports, 2022)

Target: T1, GLUT5S72Y (Homo sapiens, UniProt P22732, S72Y)
T1 construct: expressed in transfected cells; host or cells: Saccharomyces cerevisiae hxt0 strain EBY.VW4000
T1 sequence (P22732 1-501 S72Y): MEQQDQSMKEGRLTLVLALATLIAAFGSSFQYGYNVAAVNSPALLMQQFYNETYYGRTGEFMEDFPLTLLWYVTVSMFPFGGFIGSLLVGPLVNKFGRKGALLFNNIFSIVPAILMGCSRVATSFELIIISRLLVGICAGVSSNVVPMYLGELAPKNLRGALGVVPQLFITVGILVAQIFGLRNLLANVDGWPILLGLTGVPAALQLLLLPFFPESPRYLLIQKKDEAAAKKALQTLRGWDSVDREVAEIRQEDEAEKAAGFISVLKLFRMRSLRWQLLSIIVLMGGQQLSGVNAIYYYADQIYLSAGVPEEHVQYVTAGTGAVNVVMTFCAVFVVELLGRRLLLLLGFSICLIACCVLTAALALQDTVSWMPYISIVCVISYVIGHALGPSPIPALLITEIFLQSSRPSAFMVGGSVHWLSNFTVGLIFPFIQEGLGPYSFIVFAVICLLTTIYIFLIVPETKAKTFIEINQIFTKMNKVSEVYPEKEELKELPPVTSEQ
Experiment: Fructose transport assay, GLUT5S72Y expressed in hxt^0 yeast cells EBY.VW4000
Assay type: cell-based
Settings: GLUT5S72Y in hxt^0 yeast cells, 10 mM fructose; read-out: IC50 for GLUT5 transport inhibition
Source text: The most studied GLUTs are Class 1 GLUTs (GLUT1-4) and a Class 2 GLUT, GLUT5 (a fructose-only transporter). GLUT3 sequence homology and identity is 79% and 64%, 71% and 52%, 74% and 57%, and 60% and 38% with GLUT1, GLUT2, GLUT4, and GLUT5, respectively. The hxt^0 yeast cell systems expressing functional GLUT1-4[65],[69] and GLUT5[66] allow us to determine the in vivo transport activity (substrate uptake by a GLUT into whole cells) for individual GLUTs and establish GLUT3 inhibitor selectivity for these transporters. […] Given the higher sequence similarity within Class 1 GLUTs, we expected GLUT3 inhibitors to affect Class 1 GLUTs much more than GLUT5. Indeed, G3iA-G3iF reduced the transport activities of some of the other Class 1 GLUTs (Fig. 3A–C, Table 2, Supplementary Fig. S6). […] For example, G3iB was an equipotent inhibitor of GLUT4, while G3iD and G3iE inhibited GLUT1 in a similar manner to GLUT3. […] Moreover, G3iD affected all Class 1 GLUTs, having the best relative selectivity for GLUT4.
Figure 3 Effect of GLUT3 inhibitors on GLUT1, GLUT2, GLUT4, and GLUT5. The transport activity was assayed as the substrate uptake in hexose transporter-deficient yeast cells expressing functional GLUT1[65], GLUT2[69], GLUT4[65], or GLUT5[66]. […] Transport assay was initiated by the addition of C^14-labeled substrate and stopped after 10 min (see “Materials and methods” for details). (A–D) Effect of G3iA-G3iF, at 50 µM concentration, on the relative transport activities of GLUT1 (A), GLUT2 (B), GLUT4 (C), and GLUT5 (D). Standard deviations for experimental points come from at least three independent measurements.
The plasmids containing functional constructs of GLUT1-5 were transformed in the corresponding hxt^0 strains[65],[66],[73] (EBY.VW4000 for GLUT5S72Y, EBY.S7 for GLUT1, GLUT2∆loopS_Q455R, GLUT3 and GLUT3S66Y, and SDY.022 for GLUT4) and grown on 2% (w/v) agar plates of the respective media supplemented with 1% (w/v) maltose. An initial culture of ~ 10 ml was started with a few colonies and grown for 2–3 days if the media was SC-uracil with 1% (w/v) maltose (GLUT1, GLUT3, GLUT4) or 1–2 days if the media was YEP with 1% (w/v) maltose and 100 µg/ml geneticin G418 (GLUT2∆loopS_Q455R and GLUT5S72Y). […] Then, cells were transferred in the same media so that OD600nm ~ 0.5 and grown further for 1–2 days.
For transport activity assay, cells in the hexose media were centrifuged (1000×g, 5 min, room temperature), washed once with PBS buffer (10 mM Na2HPO4, 1.8 mM KH2PO4, 2.7 mM KCl, 137 mM NaCl, pH 7.4), and resuspended in PBS buffer at an OD600nm ~ 10; each assay contained 100 µl of this cell solution. […] Substrate uptake into cells was linear for more than 20 min. […] The filtration membranes were transferred into scintillation vials with 10 ml of Scintillation Solution (BioSafeII; Research Products International, Mount Prospect, IL, USA), and vortexed briefly. The radioactivity was determined with a scintillation counter (Tri-carb 2900TR, Perkin Elmer, USA). As all compounds were solubilized in dimethyl sulfoxide (DMSO), controls for determining the relative transport activity included 1% (v/v) DMSO to represent DMSO used as vehicle control (i.e., 100% activity), and known inhibitors at saturating concentrations, 200 µM phloretin for GLUT1-4[69],[82], and 100 µM N-[4-(methylsulfonyl)-2-nitrophenyl]-1,3-benzodioxol-5-amine (MSNBA) for GLUT5 (i.e., complete inhibition). […] Data were analyzed with GraphPad Prism (San Diego, CA, USA).

SMILES	IC50
CC(=O)Nc1ccc(S(=O)(=O)Nc2ccc(Nc3cc(N(C)C)nc(C)n3)cc2)cc1 [G3iA, N-(4-{[(4-{[6-(dimethylamino)-2-methylpyrimidin-4-yl]amino}phenyl)amino]sulfonyl}phenyl)acetamide]	> 50 µM
COc1ccccc1-n1c(/C=C/c2ccc(O)cc2)nc2ccc(Br)cc2c1=O [G3iB, 6-bromo-2-[(E)-2-(4-hydroxyphenyl)ethenyl]-3-(2-methoxyphenyl)quinazolin-4(3H)-one]	> 50 µM
Cc1cccnc1OC1CCN(c2cc(N3CCCC3CO)ncn2)CC1 (stereo not drawn) [G3iC]	> 50 µM
Cc1cc(NC(=O)CCC2Cc3ccccc3NC2=O)nc(-c2ccccc2)n1 (stereo not drawn) [G3iD]	> 50 µM
O=C(Nc1cccc(Cl)c1)c1cccc(NC(=O)c2cccc([N+](=O)[O-])c2)c1 [G3iE, N-{3-[(3-chloroanilino)carbonyl]phenyl}-3-nitrobenzamide]	> 50 µM
Cc1ccccc1CN(Cc1nnc(C(C)(C)C)o1)c1ccc2nc(O)[nH]c2c1 [G3iF]	> 50 µM
